US20120231482A1, “METHOD, KIT OR DIAGNOSTIC FOR THE DETECTION OF REAGENTS WHICH INDUCE ALTERED CONTRACTILITY” (THE JOHNS HOPKINS UNIVERSITY, priority 2009, published 2012)
Marks after values point to notes of the source that are not given here.

Columns and labels:
skinned trabeculae = test: Force-[Ca2+] relation in skinned trabeculae; assay type: cell-based, rat; conditions: after skinning; NCA
Method: FIG. 2. […] (A) Steady-state force-[Ca^2+]i relationship in intact trabeculae before and after NCA (20 μmol/L). n=5. See text for details. (B) Force-[Ca^2+] relation in skinned trabeculae before and after NCA (n=6). […] The muscles were treated with DTT (5 mM) for 10 min after 1st force-[Ca^2+] was obtained in the presence of NCA alone, and a second force-[Ca^2+] relation was obtained in the presence of NCA+DTT. n=3. (D) For comparison, steady-state force-[Ca^2+]i relationship in intact trabeculae before and after AS (500 μmol/L). n=5.
To further test this hypothesis, steady-state force-[Ca^2+]i relations were obtained by tetanizing the muscles in the presence of ryanodine.

myosin heavy chain β = biological target: T1, myosin heavy chain β (Rattus norvegicus, UniProt P02564); test: Modified biotin switch assay, sites of HNO modification; assay type: biochemical
T1 construct: Rat myofibrillar preparations, as described in [7], were obtained from frozen ventricles (Pel Freez Biologicals); tissue Pel Freez Biologicals; host or cells: myofibrils from frozen rat ventricles
T1 sequence (P02564 whole entry): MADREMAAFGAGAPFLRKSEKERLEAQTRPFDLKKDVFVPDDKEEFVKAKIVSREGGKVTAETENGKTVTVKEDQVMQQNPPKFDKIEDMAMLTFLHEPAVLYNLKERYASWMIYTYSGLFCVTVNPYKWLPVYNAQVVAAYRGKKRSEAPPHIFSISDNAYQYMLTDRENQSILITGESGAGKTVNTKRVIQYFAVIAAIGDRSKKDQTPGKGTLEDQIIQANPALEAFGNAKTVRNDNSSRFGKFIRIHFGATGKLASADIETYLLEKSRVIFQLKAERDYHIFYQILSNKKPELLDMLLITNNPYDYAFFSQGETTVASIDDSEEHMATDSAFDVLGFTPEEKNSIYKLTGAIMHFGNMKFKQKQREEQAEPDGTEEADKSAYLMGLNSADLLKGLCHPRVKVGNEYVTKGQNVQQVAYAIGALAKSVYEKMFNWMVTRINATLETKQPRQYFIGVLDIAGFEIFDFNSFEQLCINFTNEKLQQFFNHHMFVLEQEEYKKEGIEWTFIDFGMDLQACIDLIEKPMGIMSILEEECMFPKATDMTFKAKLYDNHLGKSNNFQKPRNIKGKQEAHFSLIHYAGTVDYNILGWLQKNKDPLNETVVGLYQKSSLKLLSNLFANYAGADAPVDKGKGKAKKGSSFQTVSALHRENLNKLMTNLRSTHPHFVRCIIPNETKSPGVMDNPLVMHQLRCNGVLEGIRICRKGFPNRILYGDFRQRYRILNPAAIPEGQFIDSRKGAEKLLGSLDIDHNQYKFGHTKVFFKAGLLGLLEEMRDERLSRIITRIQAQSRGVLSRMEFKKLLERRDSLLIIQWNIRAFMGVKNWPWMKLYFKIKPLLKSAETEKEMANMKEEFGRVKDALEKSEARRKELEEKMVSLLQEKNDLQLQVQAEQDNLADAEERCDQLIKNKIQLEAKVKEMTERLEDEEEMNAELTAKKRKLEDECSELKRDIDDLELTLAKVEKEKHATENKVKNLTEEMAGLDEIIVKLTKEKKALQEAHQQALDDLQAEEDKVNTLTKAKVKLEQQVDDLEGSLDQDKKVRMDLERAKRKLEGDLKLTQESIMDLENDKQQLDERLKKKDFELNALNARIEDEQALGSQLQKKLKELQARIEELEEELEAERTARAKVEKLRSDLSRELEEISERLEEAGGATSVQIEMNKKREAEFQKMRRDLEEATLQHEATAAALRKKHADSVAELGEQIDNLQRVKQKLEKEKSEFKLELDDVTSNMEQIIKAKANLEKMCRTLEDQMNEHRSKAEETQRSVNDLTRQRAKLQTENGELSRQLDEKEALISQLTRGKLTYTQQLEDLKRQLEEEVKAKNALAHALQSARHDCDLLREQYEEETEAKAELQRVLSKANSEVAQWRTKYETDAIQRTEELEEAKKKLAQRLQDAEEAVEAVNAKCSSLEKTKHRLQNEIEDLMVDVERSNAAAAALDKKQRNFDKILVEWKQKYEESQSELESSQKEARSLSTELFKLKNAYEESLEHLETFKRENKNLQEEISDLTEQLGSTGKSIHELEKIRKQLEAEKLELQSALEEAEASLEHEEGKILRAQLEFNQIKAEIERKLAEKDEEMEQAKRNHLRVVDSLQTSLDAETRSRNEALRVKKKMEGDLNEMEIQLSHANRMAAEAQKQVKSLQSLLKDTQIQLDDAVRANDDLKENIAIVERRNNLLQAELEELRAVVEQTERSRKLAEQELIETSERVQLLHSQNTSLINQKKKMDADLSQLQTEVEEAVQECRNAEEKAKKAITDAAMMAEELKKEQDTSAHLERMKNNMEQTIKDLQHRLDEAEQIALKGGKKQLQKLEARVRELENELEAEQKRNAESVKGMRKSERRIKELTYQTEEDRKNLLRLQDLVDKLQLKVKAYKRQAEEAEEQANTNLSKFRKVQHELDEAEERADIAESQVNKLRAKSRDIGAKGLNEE
Method: (§1) Rat myofibrillar preparations, as described in [7], were obtained from frozen ventricles (Pel Freez Biologicals) minced in 20 volumes/tissue weight of 4° C. relax buffer (SRB (75 mM KCL, 10 mM imidazole pH 7.2, 2 mM MgCl2) plus 4 mM phosphocreatine, 1 mM ATP, 50 mM BDM, 1 mM benzamidine-HCL, 0.1 mM PMSF, 1 μg/ml leupeptin, 1 μg/ml pepstatin, 1% (v/v) Trixon X-100) and adjusted to 10 mM EDTA. Minced preparations were centrifuged for 8 min at 3000xg and the supernant was decanted. Resulting pellets were resuspended in 10 volumes of SRB plus 1% Triton X-100 and subjected to 6 strokes in a Duall tissue homogenizer and centrifuged as above. Pellets were gently resuspended and centrifuged as above twice more in SRB including 1% (v/v) Triton X-100, twice in SRB lacking Triton X-100 and once in K-60 buffer (60 mM KCL, 20 mM MOPS, 2 mM MgCl2 pH 7) before being resuspended in 5 volumes of K-60.
(§2) Detection of HNO modifications by Modified Biotin Switch. HNO modified thiols were detected using a modification to the standard biotin switch protocol. In brief, 100 μg of rat myofibrils/treatment were diluted to 0.5 μg/μl in HEN (250 mM HEPES pH 7.7, 1 mM EDTA and 0.1 mM neocuproine) including 0.1% (w/v) SDS and exposed to a treatment for 10 min at 37° C. which was subsequently removed by acetone precipitation. Remaining free thiols were blocked by addition of 300 μl of HEN including 2.5% (w/v) SDS and 20 mM N-ethylmaleimide (NEM), incubated for 20 min at 50° C. Excess NEM was removed by acetone precipitation. HNO and/or NO modified thiols were reduced using 5 mM DTT or 1 mM ascorbate in 150 μl of HEN including 1% (w/v) SDS and biotinylated with 0.8 mM Biotin-HPDP (Pierce) for one hour at room temperature. Excess biotin-HPDP was removed by acetone precipitation (2 volumes) and resultant pellets were carefully washed with an additional volume of acetone. Biotinylated proteins were resuspended in 1 ml of HEN including 0.1% (w/v) SDS and captured by incubation with 15 μl of washed, packed Ultralink Immobilized Streptavidin (Pierce) for one hour at room temperature. Beads were washed four times in 50 bead volumes of HEN (twice including 0.1% (w/v) SDS, twice including 600 mM NaCl) and twice with EB (20 mM HEPES pH 7.7, 100 mM NaCl, 1 mM EDTA). Captured proteins were eluted with 40 μl of EB containing 100 mM DTT, mixed with 15 μl of 4×LDS sample buffer, boiled, separated by SDS PAGE and silver stained. For MS studies, biotinylated proteins were digested overnight with trypsin (Promega) prior to capture and washed ten additional times with 5 mM ammonium bicarbonate/20% acetonitrile before being eluted in 100 μl of wash buffer including 100 mM DTT as described. Captured peptides were identified using a LTQ linear ion trap tandem mass spectrometer (ThermoFinnigan, Waltham Mass. USA) with data searched against the rat IPI primary sequence database using the sorcerer searching platform (sagen).
(§3) To investigate the modifications that underlie the difference seen in the functional effect of these two compounds we performed an analysis on the myofilament proteins, using a modified biotin-switch method, followed by mass spectrometry for identification (FIG. 3). Following treatment with HNO or control compounds, unmodified cysteines are blocked with NEM before treatment with a reducing agent and labeling the exposed cysteines with a biotin group (FIG. 3A). In this case, 5 mM DTT was used as the reducing agent because it was shown in the physiological studies to reverse the effect of the treatment. […] Tryptic or chymotryptic peptides containing the modified cysteine residues were captured and identified by LC/MS/MS. […] To parse the role of candidate sites of modification between these two effects a comparative proteomics experiment was designed where modifications specific to NCA treatment would be considered candidates for the Ca^2+ effect while sites identified in common between AS and NCA could be candidates for the force effect (FIG. 3C). […]

tropomyosin (α) = biological target: T2, tropomyosin (α) (Rattus norvegicus, UniProt P04692); test: as above; assay type: biochemical
T2 construct: Rat myofibrillar preparations, as described in [7], were obtained from frozen ventricles (Pel Freez Biologicals); tissue Pel Freez Biologicals; host or cells: myofibrils from frozen rat ventricles
T2 sequence (P04692 whole entry): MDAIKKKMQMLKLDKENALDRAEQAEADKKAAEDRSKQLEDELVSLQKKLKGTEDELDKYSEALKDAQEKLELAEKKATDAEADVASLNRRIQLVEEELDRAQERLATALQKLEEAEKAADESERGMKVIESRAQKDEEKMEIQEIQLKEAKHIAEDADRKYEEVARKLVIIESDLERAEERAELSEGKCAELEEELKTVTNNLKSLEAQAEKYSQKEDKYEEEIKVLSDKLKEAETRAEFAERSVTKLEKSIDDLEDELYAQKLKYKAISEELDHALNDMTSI
Method: as §1, §2, §3

Structure (SMILES): CC(=O)OC1(N=O)CCCCC1 [NCA, 1-nitrosocyclohexylacetate]
- Hill (skinned trabeculae): 2.39±1.02
- number of independent observations of peptide (myosin heavy chain β; Cys 947, tryptic peptide KLEDECELKR, 25 μM NCA or 500 μM AS): 3
- Position of modified Cys (myosin heavy chain β; myosin heavy chain (β), Table 2): 947(β)*
- number of independent observations of peptide (tropomyosin (α); Cys 190, tryptic peptide CLELEEELKTVTNNLK, 25 μM NCA or 500 μM AS): 3^a
- Position of modified Cys (tropomyosin (α); α-tropomyosin, Table 2): 190
